How the values were obtained:
h[α6I56V/α3]β4 = h[α6I56V/α3]β4 (Homo sapiens, UniProt P30926+Q15825, I89V, form not given); assay type: cell-based; conditions: ACh on h[α6I56V/α3]β4
hα6/α3β4 = molecular target: T1, hα6/α3β4 (Homo sapiens, UniProt P30926+P32297+Q15825); assay: Electrophysiological assay, ACh concentration-response (Xenopus oocytes); assay type: cell-based; conditions: ACh on hα6/α3β4
T1 construct: splicing the N-terminal extracellular domain of the α6 subunit with the α3 subunit; host or cells: Xenopus laevis oocytes injected with cRNA (1:1)
T1 sequence (Q15825+P32297 fused with the stated changes): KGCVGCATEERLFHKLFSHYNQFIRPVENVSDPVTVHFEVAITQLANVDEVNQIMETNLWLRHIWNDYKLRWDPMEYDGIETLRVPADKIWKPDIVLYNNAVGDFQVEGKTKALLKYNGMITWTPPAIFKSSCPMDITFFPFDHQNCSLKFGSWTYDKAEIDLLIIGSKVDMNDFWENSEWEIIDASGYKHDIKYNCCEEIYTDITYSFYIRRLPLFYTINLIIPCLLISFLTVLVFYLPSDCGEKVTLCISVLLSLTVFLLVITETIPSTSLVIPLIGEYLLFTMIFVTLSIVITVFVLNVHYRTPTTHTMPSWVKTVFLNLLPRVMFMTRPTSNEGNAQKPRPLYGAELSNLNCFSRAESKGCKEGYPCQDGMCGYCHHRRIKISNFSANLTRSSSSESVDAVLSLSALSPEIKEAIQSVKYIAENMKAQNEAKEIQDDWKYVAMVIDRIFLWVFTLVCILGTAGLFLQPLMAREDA
T1 sequence (P30926 22-498): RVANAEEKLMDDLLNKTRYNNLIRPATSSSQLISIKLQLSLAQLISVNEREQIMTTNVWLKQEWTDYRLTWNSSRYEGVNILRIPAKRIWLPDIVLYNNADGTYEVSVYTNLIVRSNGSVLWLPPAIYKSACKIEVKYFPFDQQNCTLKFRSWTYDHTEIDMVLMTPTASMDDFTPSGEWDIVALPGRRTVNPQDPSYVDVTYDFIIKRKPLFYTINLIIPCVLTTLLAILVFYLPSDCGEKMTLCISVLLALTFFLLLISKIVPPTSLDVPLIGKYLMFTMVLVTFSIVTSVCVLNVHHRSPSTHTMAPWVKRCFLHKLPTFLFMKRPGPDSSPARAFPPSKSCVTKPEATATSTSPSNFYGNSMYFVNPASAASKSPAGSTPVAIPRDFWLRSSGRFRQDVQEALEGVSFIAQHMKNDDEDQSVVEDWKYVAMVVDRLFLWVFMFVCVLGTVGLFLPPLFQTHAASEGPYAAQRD

h[α6I56V/α3]β4, sequence (Q15825 26-239 I89V, form open): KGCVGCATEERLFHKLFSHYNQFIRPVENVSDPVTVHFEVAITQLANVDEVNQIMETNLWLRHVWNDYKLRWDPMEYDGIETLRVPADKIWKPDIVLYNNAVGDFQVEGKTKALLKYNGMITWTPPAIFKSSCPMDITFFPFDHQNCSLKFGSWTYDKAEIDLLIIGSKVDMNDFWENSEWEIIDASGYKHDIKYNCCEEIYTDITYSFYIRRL
h[α6I56V/α3]β4, sequence (P30926 22-498, form open): as the sequence (P30926 22-498) above
h[α6I56V/α3]β4, sequence (P32297 241-505 partner, form open): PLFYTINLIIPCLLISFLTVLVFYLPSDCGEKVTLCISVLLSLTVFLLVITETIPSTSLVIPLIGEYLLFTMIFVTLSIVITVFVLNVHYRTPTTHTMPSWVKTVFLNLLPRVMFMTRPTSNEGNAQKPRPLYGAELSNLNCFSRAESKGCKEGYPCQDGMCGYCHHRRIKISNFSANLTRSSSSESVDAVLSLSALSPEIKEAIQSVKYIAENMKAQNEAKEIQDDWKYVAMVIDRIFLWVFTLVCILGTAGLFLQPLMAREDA

Structure (SMILES): CC(=O)OCC[N+](C)(C)C [ACh, acetylcholine chloride]
- Hill Slope (h[α6I56V/α3]β4): 1.3 (1.1–1.5)
- Hill Slope (hα6/α3β4): 1.4 (1.2–1.7)

From article PMC10218596 (International Journal of Molecular Sciences, 2023)
